Results on nine molecules are retold here after ChEMBL document CHEMBL3046185, “Antifeedant activity of neo-clerodane diterpenoids from Teucrium arduini” (2002).

The structures appear in SMILES notation.

The test relates to Spodoptera littoralis. Kind of test: Antifeedant activity against Spodoptera littoralis using glass-fibre disks at 100 ppm measured after 18 hr by binary choice feeding bioassay relative to control. Format: functional.

As for `C[C@@H]1C[C@@H](O)[C@@]23COC(=O)C2C[C@@H](O)C[C@@H]3[C@@]12C[C@@H](c1ccoc1)OC2=O` (some centres undefined) [DIHYDROTEUGIN], the AFI is listed as -1.2%.

For the molecule `C[C@@H]1C[C@@H](O)[C@@]23COC(=O)C2=CCC[C@@H]3[C@@]12C[C@@H](c1ccoc1)OC2=O` [6BETA-HYDROXYTEUSCORDIN], the AFI was 73.1%.

For the molecule `C[C@@H]1C[C@@H](O)[C@@]23CO[C@]2(CO)CCC[C@@H]3[C@@]12C[C@@H](c1ccoc1)OC2=O` [MONTANIN D], the AFI stood at 82.1%.

In the case of `C[C@@H]1C[C@@H]2OC(=O)C3=C2[C@H](CCC3)[C@@]12C[C@@H](c1ccoc1)OC2=O` [TEUCVIN], the AFI turned out to be 52.2%.

For the molecule `C[C@@H]1C[C@@H](O)[C@@]23COC(=O)C2=C[C@@H](O)C[C@@H]3[C@@]12C[C@@H](c1ccoc1)OC2=O` [TEUGIN], the AFI was found to be 11.1%.

Take `CC(=O)OC[C@@]12CCC[C@@H]3[C@@]4(C[C@@H](c5ccoc5)OC4=O)[C@H](C)C[C@@H](OC(C)=O)[C@]31CO2` [DIACETYLMONTANIN D]: the AFI amounted to 34.6%.

Turning to `C[C@@H]1C[C@@H](O)[C@@]2(CO)C(CO)=C[C@@H](O)C[C@@H]2[C@@]12C[C@@H](c1ccoc1)OC2=O` [19-DEACETYLTEUSCORODOL], the AFI is given as -54.5%.

As for `C[C@@H]1CC(=O)[C@@]23COC(=O)C2=CCC[C@@H]3[C@@]12C[C@@H](c1ccoc1)OC2=O` [TEUSCORDINON], the AFI came to 55.7%.

As to `C[C@@H]1C[C@@H]2OC(=O)C3=C2[C@H](CC[C@@H]3O)[C@@]12C[C@@H](c1ccoc1)OC2=O` [ISOTEUFLIFIN], the AFI is on record as 11%.
